Measurements from patent US11147746B2, “Hydrophobic dental surfaces” (priority 2016, dated 2021).
No end group written: not given here.

Legend:
[1] = Water contact angle (sessile drop) on peptide-coated dentin; format: physicochemical
Excerpt: The water contact angle (WCA) may be measured using the sessile drop method with deionized water as probe liquid. The sessile drop is the most common method for optical measurement of the contact angle using drop shape analysis. Measurement of the contact angle of a sessile drop that lies on the surface of a solid may be made with a contact angle goniometer, which allows measuring the contact angle visually by capturing the profile of a pure liquid on a solid substrate. The angle formed between the liquid-solid interface and the liquid-vapor interface is determined to be the water contact angle. A droplet is deposited by a syringe which is positioned above the sample surface, and a high-resolution camera may be used to capture the image from the profile or side view. The image may be analyzed using image analysis software. The measurement may be referred to as a static contact angle measurement. The change in WCA, or ΔWCA, is the difference between the average water contact angles after predetermined intervals of time, for example, 1 s and 21 s of drop contact with the tested surface, or the difference between the initial and the final water contact angles.
Water contact angles described according to the disclosure are with reference to the sessile drop technique, using a drop volume or 2-5 μL, for example, 3 μL. Similar or different values of WCA and ΔWCA for the same tested surfaces may be obtained using other methods to determine wettability of surfaces, such as the Wilhelmy method, or when using different drop volumes. In some examples, one or more of these or other techniques may be used to determine the WCA or ΔWCA.
The wettability of coated etched dentin with these peptides was evaluated in different conditions, for example, single or double GL13K coatings, rinsing with water or alcohol after coating, after deproteinization, with blow drying, alcohol drying, combinations of the two, or progressive alcohol drying after dentin etching, and using the same buffer solutions with or without peptides. Dynamic water contact angles (WCA) of water drops placed on the treated dentin surfaces were measured.
A drop of 3 μL of deionized water was dispensed using a contact angle meter (DCM-E1, Kyowa, Japan) on top of the dentin surfaces with and without treatments. Images of the drop were automatically taken with the camera of the contact angle meter every second for 21 s; i.e., until the shape of the drop on the surface was stable for all surfaces analyzed. The shape of the profile of the drop on the surface was then automatically identified by the equipment's software (Famas, Kyowa, Japan) and the contact angle between the liquid-solid interface and the liquid-vapor interface was determined. The reported WCA are average values at the end of the test; i.e., after 21 s the drop was in contact with the tested surface for at least 3 different drops in three different surfaces for each dentin treatment. ΔWCA is the difference between the average water contact angles after 1 s and 21 s of drop contact with the tested surface; i.e., the difference between the initial and the final water contact angles.
A de-proteinization step was used to remove demineralized/exposed collagen. […] A super-hydrophobic GL13K-coated dentin surface with water contact angles up to 100 was produced.

[2] = Saliva (enzyme) challenge of coated dentin, then WCA and acidic dye penetration; parameters: species or system bovine; conditions: saliva at 37° C. for three consecutive days
Protocol: Peptide-coated dentin samples were challenged with saliva, which includes enzymes. Bovine dentin slabs, prepared as discussed above with reference to EXAMPLE 2, were incubated in freshly collected and filtered saliva (thus exposed to biodegrading enzymes) at 37° C. for three consecutive days. The WCA was subsequently measured, and the samples were further immersed in acidic blue dye for 4 h. GL13K-coated dentin retained its hydrophobic character after the challenge, with average WCA=105°. FIG. 7A is a photograph showing a transverse cross-section of a tooth slab including enamel and dentin and treated with a buffer solution, exposed to saliva for three days, and subjected to an acidic blue dye.

[3] = dentin prepared with the deproteinized method, then coated (samples S12, S14, S16)
[4] = progressive dehydration protocol (increasing ethanol concentrations)

Q: Which WCA [1, 3] does the source give for VRLIVAVRIWRR [Sample 1018] here?
A: 84 °

Q: Which WCA [1, 3] does the source give for GKIIKLKASLKLL [GL13K] here?
A: 85 °

Q: What about the water contact angles ([1]; etching, wet de-proteinization with 5% NaOCl, coating without alcohol dehydration (Example 8)) of the same sequence?
A: up to 100

Q: And the WCA [1, 4]?
A: 120 °

Q: And the ΔWCA [1, 4]?
A: 4 °

Q: And the WCA ([1]; single coating on etched dentin, alcohol rinse and blow drying)?
A: 55 °

Q: And the WCA ([1]; single coating on etched dentin, water rinse and blow drying)?
A: 70 °

Q: And the WCA ([1]; two coating treatments, rinsing with alcohol)?
A: 100 °

Q: And the “variation of water contact angle over time” value ([1]; with respect to the etched dentin)?
A: significantly reduced

Q: And the “average WCA after saliva challenge” value [2]?
A: 105 °
